Laboratory results as given in publication PMC10582335 (Frontiers in Pharmacology, 2023).
Read-outs that look alike come from different tables or passages of the source.

Tests used:
[1] = Stability in rat plasma under storage and processing conditions (QC samples, UPLC-MS/MS); settings: n = 6
Description: The stability of plasma samples was validated by the QC samples at three concentration levels in six replicates under various storage and processing conditions: autosampler for 24 h after preprocessing, room temperature for 8 h, −80°C for 30 days, and three freeze-thaw cycles (−80°C to room temperature). The samples were verified to be stable if the deviation of the samples was not more than ±15% of the standard concentration.

[2] = cited from earlier work; for terminal half-life: 2008
[3] = parameters: method as in Kim et al., 2019; settings: with verapamil (inhibitor of P-gp and CYP3A4); ref Kim et al., 2019; cited from earlier work
[4] = Freeze-thaw stability for three times, high QC (nominal 150 almonertinib, 800 apixaban, 1,500 rivaroxaban ng/mL)
[5] = Freeze-thaw stability for three times, low QC (nominal 1 almonertinib, 2 apixaban, 10 rivaroxaban ng/mL)
[6] = Freeze-thaw stability for three times, medium QC (nominal 80 almonertinib, 400 apixaban, 800 rivaroxaban ng/mL)
[7] = Room temperature for 8 h, high QC (nominal 150 almonertinib, 800 apixaban, 1,500 rivaroxaban ng/mL)
[8] = Room temperature for 8 h, low QC (nominal 1 almonertinib, 2 apixaban, 10 rivaroxaban ng/mL)
[9] = Room temperature for 8 h, medium QC (nominal 80 almonertinib, 400 apixaban, 800 rivaroxaban ng/mL)
[10] = −80°C for 30 days, high QC (nominal 150 almonertinib, 800 apixaban, 1,500 rivaroxaban ng/mL)
[11] = −80°C for 30 days, low QC (nominal 1 almonertinib, 2 apixaban, 10 rivaroxaban ng/mL)
[12] = −80°C for 30 days, medium QC (nominal 80 almonertinib, 400 apixaban, 800 rivaroxaban ng/mL)

## O=C(NC[C@H]1CN(c2ccc(N3CCOCC3=O)cc2)C(=O)O1)c1ccc(Cl)s1 [rivaroxaban, Rivaroxaban]
[1]; [4]
  Stability: Accuracy (RE%): −5.56%
  Stability: measured concentration, Mean ± SD: 1,416.67 ± 48.85 ng/mL
[1]; [5]
  Stability: Accuracy (RE%): 1.13%
  Stability: measured concentration, Mean ± SD: 10.11 ± 0.61 ng/mL
[1]; [6]
  Stability: Accuracy (RE%): −3.21%
  Stability: measured concentration, Mean ± SD: 774.33 ± 23.28 ng/mL
[1]; [7]
  Stability: Accuracy (RE%): −1.11%
  Stability: measured concentration, Mean ± SD: 1,483.33 ± 72.30 ng/mL
[1]; [8]
  Stability: Accuracy (RE%): 7.75%
  Stability: measured concentration, Mean ± SD: 10.78 ± 0.59 ng/mL
[1]; [9]
  Stability: Accuracy (RE%): 4.19%
  Stability: measured concentration, Mean ± SD: 833.50 ± 49.92 ng/mL
[1]; [10]
  Stability: Accuracy (RE%): −4.33%
  Stability: measured concentration, Mean ± SD: 1,435.00 ± 96.07 ng/mL
[1]; [11]
  Stability: Accuracy (RE%): 6.83%
  Stability: measured concentration, Mean ± SD: 10.68 ± 0.22 ng/mL
[1]; [12]
  Stability: Accuracy (RE%): −4.38%
  Stability: measured concentration, Mean ± SD: 765.00 ± 58.14 ng/mL
[2]; (±1 h), each of two drugs, ref Steffel et al., 2021
  time of the maximal blood concentration after oral intake: 2 to 3 h
[2]; after oral administration, ref Kubitza et al., 2005a, Kubitza et al., 2005b, Raghavan et al., 2009
  time to reach maximum plasma concentrations: 2 to 4 h
[2]; elderly subjects, ref Kubitza et al., 2005a, Kubitza et al.
  terminal half-life: 11 to 13 h
[2]; healthy young subjects, ref Kubitza et al., 2005a, Kubitza et al.
  terminal half-life: 5 to 9 h
[3]
  increase of systemic exposure of rivaroxaban: 2.8 fold
